The values that follow come from PMC10505172, “Discovery and pharmacophoric characterization of chemokine network inhibitors using phage-display, saturation mutagenesis and computational modelling” (Nature Communications, 2023).

Where two headings read alike, the source gives them in different places. Ends that are not written are not given here.

Assay [1] has as its target T1, CCL8 (Homo sapiens, UniProt P80075).
T1 construct: purchased Peprotech 300-15
T1 sequence (P80075 24-99): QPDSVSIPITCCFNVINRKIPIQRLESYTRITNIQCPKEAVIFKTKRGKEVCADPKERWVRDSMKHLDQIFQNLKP
Description: CCL8-induced THP1 cell migration (chemotaxis). The class given is cell-based. Conditions: for effect on chemokine-induced cell migration compared with scrambled control HD2SCR: peptides 10 μM, chemokine at EC80, THP1 cells, n = 3 biological replicates, Dunnett's test. How it is done: (§1) For THP1 migration assays, 300000 cells/well were added to the top chamber of a 5-µm 96-well Transwell insert (3387, Corning) in 50 µL of cell migration media (RPMI-1640 (R0883, Sigma), 0.5% FBS (F9665, Sigma), 4 mM L-Glutamine (G7513, Sigma), 0.05% DMSO (D4540, Sigma)). The bottom chamber contained 150 µL of migration media with chemokine and peptide added. Cells were migrated at 37 °C in 5% CO2 for 4 h.
Following the migration assay the migration plate was shaken at 850 RPM for 10 min, and media from bottom plate transferred to a round-bottomed 96 well plate (353910, Falcon). Cell counts were determined using an Atune NxT Flow Cytometer Plate Reader with Cytkick autosampler (ThermoFisher), based on cell size parameters FSC-H/SSC-H, and a previously defined gate setting for each cell type (Supplementary Fig. 11). All experiments were performed as three technical and three biological replicates. Statistical significances between control and experimental groups was evaluated using Dunnett’s test[73]. IC50 experiments were performed at the EC80 dose of chemokine. EC80 was calculated by fitting a chemokine dose-response curve with a 3-parameter log-logistic model (fixing the top to 100%) using the function “drm” in R-package drc[74]. IC50 was calculated by fitting an inhibitor response curve with a 4-parameter log-logistic model using the function “drm” in R-package drc[74]. All IC50 values reported had p-value < 0.05.

Assay [2] addresses T2, CCL5 (Homo sapiens, UniProt P13501).
T2 construct: purchased Peprotech 300-06
T2 sequence (P13501 24-91): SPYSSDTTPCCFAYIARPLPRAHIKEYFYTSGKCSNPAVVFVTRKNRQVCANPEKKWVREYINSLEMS
As to the kind of experiment: CCL5-induced THP1 cell migration (chemotaxis). The class given is cell-based. How it is done: as §1
(§2) Following the migration assay the migration plate was shaken at 850 RPM for 10 min, and media from bottom plate transferred to a round-bottomed 96 well plate (353910, Falcon). Cell counts were determined using an Atune NxT Flow Cytometer Plate Reader with Cytkick autosampler (ThermoFisher), based on cell size parameters FSC-H/SSC-H, and a previously defined gate setting for each cell type (Supplementary Fig. 11). All experiments were performed as three technical and three biological replicates. Statistical significances between control and experimental groups was evaluated using Dunnett’s test[73]. IC50 experiments were performed at the EC80 dose of chemokine. EC80 was calculated by fitting a chemokine dose-response curve with a 3-parameter log-logistic model (fixing the top to 100%) using the function “drm” in R-package drc[74]. IC50 was calculated by fitting an inhibitor response curve with a 4-parameter log-logistic model using the function “drm” in R-package drc[74]. […]

The target of assay [3] is T3, CCL7 (Homo sapiens, UniProt P80098).
T3 construct: purchased Peprotech 300-17
T3 sequence (P80098 24-99): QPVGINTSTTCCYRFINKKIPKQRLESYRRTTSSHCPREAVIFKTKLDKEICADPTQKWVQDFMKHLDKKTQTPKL
As to the kind of experiment: CCL7-induced THP1 cell migration (chemotaxis). In kind it is cell-based. How it is done:
as §1, §2

Assay [4] addresses T4, CXCL10 (Homo sapiens, UniProt P02778).
T4 construct: purchased Peprotech 300-12
As to the kind of experiment: CXCL10-induced activated T cell (ATC) migration (chemotaxis). The class given is cell-based. The protocol:
For activated-T cell migration assays, 100000 cells/well were added to the top chamber of a 3-µm Transwell insert (3385, Corning) in 50 µL of migration media (HBSS (14025-092, Life Technologies), 0.1% protease free bovine serum albumin (A7030, Sigma), 0.05% DMSO (D4540, Sigma)). The bottom chamber contained 150 µL of migration media with chemokine and peptide added. Cells were migrated at 37 °C in 5% CO2 for 2 h.
as §2

For assay [5], the target named is T5, CXCL6 (Homo sapiens, UniProt P80162).
T5 construct: purchased Peprotech 300-41
T5 sequence (P80162 38-114): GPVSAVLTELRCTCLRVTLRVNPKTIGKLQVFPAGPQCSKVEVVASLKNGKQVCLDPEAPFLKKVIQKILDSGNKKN
Description: CXCL6-induced Jurkat CXCR1 (J:CXCR1) migration (chemotaxis). The class given is cell-based. How it is done: as §1
J:CXCR1 migration assays were performed exactly as for THP1 assays except that a 3-µm Transwell insert (3385, Corning) was used.
Following the migration assay the migration plate was shaken at 850 RPM for 10 min, and media from bottom plate transferred to a round-bottomed 96 well plate (353910, Falcon). Cell counts were determined using an Atune NxT Flow Cytometer Plate Reader with Cytkick autosampler (ThermoFisher), based on cell size parameters FSC-H/SSC-H, and a previously defined gate setting for each cell type (Supplementary Fig. 11). […] Statistical significances between control and experimental groups was evaluated using Dunnett’s test[73]. […] EC80 was calculated by fitting a chemokine dose-response curve with a 3-parameter log-logistic model (fixing the top to 100%) using the function “drm” in R-package drc[74]. IC50 was calculated by fitting an inhibitor response curve with a 4-parameter log-logistic model using the function “drm” in R-package drc[74]. […]

The subject of assay [6] is 25 biotinylated chemokines. Description: Phage-display library selection with deep sequencing. The class given is binding, human. The note with it: multivalent p8 phage display, three selection rounds, 25 chemokine baits, enrichment vs input library. The protocol:
Phage display screening was performed using a protocol as described[71] with certain modifications. Experiments were performed in 96-well plates (Greiner Bio-One, 655180). Briefly, biotinylated chemokines (1 μg, Almac or ProteinFoundry, Supplementary Table 1) were immobilised on 5 μl streptavidin-coated magnetic beads (Dynabeads™ M-280 Streptavidin, Invitrogen, 11205D) and incubated overnight at 4 °C. […]
Inserts from the input library and from the final phage population following selection were amplified by PCR using primers: 5′- […] and 5′-[…], (Life Technologies). The PCR products were cleaned up using Monarch® PCR & DNA Cleanup Kit (5 μg) (T1030, NEB), 260/280 ratio determined by Nanodrop, quantified using a Qubit dsDNA Quantitation, High Sensitivity Kit (Q32851, Thermo Scientific) and subsequently sequenced at Azenta/GeneWiz using the AmpliconEZ protocol.
Paired end read Fastq files were joined by the read id. […] Hexadecapeptide enrichment (E) following selection was calculated as ratio of output peptide frequency to input peptide frequency and expressed as log2E. […]

The target in assay [7] is T1, CCL8. Description: Biolayer interferometry, His-SUMO peptide fusion binding to chemokine. The source says: We next evaluated the ability of the exemplar peptide HD2 to bind a panel of chemokines (Supplementary Table 3) using biolayer interferometry (BLI). We generated HD2 and a scrambled control (HD2SCR) as HIS:SUMO fusion proteins in E.coli. This approach results in soluble proteins that can be immobilised on to BLI sensors through the N-terminal HIS tag. […] The binding of HD2 to these chemokines was characterised at different chemokine doses to evaluate binding affinity (KD). […] As chemokines are known to oligomerize in solution and also upon glycosaminoglycan binding, the most parsimonious explanation for this binding profile is chemokine oligomerization at the BLI sensor. […] The most likely explanation is that multivalent phage peptide-display allows identification of lower affinity interactions in comparison to BLI[40].
The binding of His-SUMO tagged peptide fusions to various chemokines (Supplementary Table 3) was investigated by biolayer interferometry (BLI) using Ni-NTA biosensors (18-5101, ForteBio). All BLI data were obtained at 25 °C using a ForteBio-Sartorius Octet RED 384 instrument and Octet 384-well tilted bottom microplate (18-5080, Sartorius). […] Kinetic data was analysed using buffer subtracted wavelength shift and a 1:1 binding model.

The test system of assay [8] is CCL11. As to the kind of experiment: Biolayer interferometry cross-binding screen. Also noted: species or system human. The note with it: 1 μM chemokine, fusion 1 mg/mL immobilised; specific if Rmax exceeded 3 times Rmax of SUMO:HD2SCR; two independent experiments. How it is done: (§3) The binding of His-SUMO tagged peptide fusions to various chemokines (Supplementary Table 3) was investigated by biolayer interferometry (BLI) using Ni-NTA biosensors (18-5101, ForteBio). All BLI data were obtained at 25 °C using a ForteBio-Sartorius Octet RED 384 instrument and Octet 384-well tilted bottom microplate (18-5080, Sartorius). The biosensors were preincubated overnight at room temperature in BLI buffer (PBS, 500 mM NaCl, 0.01% BSA (A7638, Sigma) + 0.002% Tween (P2287, Sigma)). His-SUMO tagged peptide fusions at 1 mg/mL (for cross-binding screen assay) and at 0.25 mg/mL (for kinetic assays) were immobilised on the Ni-NTA biosensors for 500 s using the BLI buffer. The HIS:SUMO fusion-loaded biosensors were then washed in the BLI buffer to allow signal stabilisation. To study the association with the analyte (chemokines), the biosensors were then dipped in chemokine solutions of various concentrations (1 μM for cross-binding screen assays, a range of 25–750 nM for kinetic assays) made in the BLI buffer, for either 300 s for cross-binding screen assays, or 600 s for kinetic assays. This was followed by the dissociation step, where the biosensors were incubated in BLI buffer for 300 s for screening assays and 600 s for kinetic assays. For chemokine cross-binding screens, wavelength shift was normalised by subtracting the signal from buffer control, and normalising the highest Rmax (i.e., with CCL8 and HD2) obtained in the experiment to 1. Kinetic data was analysed using buffer subtracted wavelength shift and a 1:1 binding model. […]
(§4) independent experiments. Plots display normalised wavelength shift (y axis; nm) versus time (x-axis; seconds). Vertical dotted line indicates the onset of dissociation. Cross-binding experiments (at 1 uM chemokine concentration) were performed with a panel of chemokines (see Supplementary information
(§5) Table 3). […] Chemokine names are indicated. […]
(§6) specific binding in two independent experiments are shown. […]
Background: In BLI a coated tip is dipped into the sample, and binding shifts an interference pattern.

Assay [9] relates to CCL1. As to the kind of experiment: Biolayer interferometry cross-binding screen. Also noted: species or system human. Conditions: 1 μM chemokine, fusion 1 mg/mL immobilised; specific if Rmax exceeded 3 times Rmax of SUMO:HD2SCR; two independent experiments. How it is done: as §3, §4, §5, §6
Assay [10] has as its system CXCL13. As to the kind of experiment: Biolayer interferometry cross-binding screen. Also noted: species or system human. Conditions: 1 μM chemokine, fusion 1 mg/mL immobilised; specific if Rmax exceeded 3 times Rmax of SUMO:HD2SCR; two independent experiments. How it is done:
as §3, §4, §5, §6

Assay [11] concerns the target T2, CCL5. Description: Biolayer interferometry cross-binding screen. The note with it: 1 μM chemokine, fusion 1 mg/mL immobilised; specific if Rmax exceeded 3 times Rmax of SUMO:HD2SCR; two independent experiments. How it is done: as §3, §4, §5, §6
In assay [12] the target is T3, CCL7. As to the kind of experiment: Biolayer interferometry cross-binding screen. Conditions: 1 μM chemokine, fusion 1 mg/mL immobilised; specific if Rmax exceeded 3 times Rmax of SUMO:HD2SCR; two independent experiments. How it is done: as §3, §4, §5, §6
Assay [13] addresses T4, CXCL10. Description: Biolayer interferometry cross-binding screen. The note with it: 1 μM chemokine, fusion 1 mg/mL immobilised; specific if Rmax exceeded 3 times Rmax of SUMO:HD2SCR; two independent experiments. The protocol: as §3, §4, §5, §6

The term IC50 denotes the point on the concentration scale where inhibition reaches its midpoint. A higher IC50 goes with lower potency. Broadly, the Kd is a measure of binding affinity in units of concentration. A low value points to a tighter complex.

With “EDEDYEDFFKPVTCYF [HD845, hexadecapeptide from evasin EV672_RHIPC, previously described as BK1.5]”, in [1], the “effect on chemokine-induced cell migration compared with scrambled control HD2SCR” value is “inhibition”.
Same read-out and setting: next, “DEDYEDFFKPVTCYFA [HD540, hexadecapeptide from evasin EV672_RHIPC]”: “inhibition”.
Take EEDDYTAYAPLTCYFT-NH2 [HD2]: the half-maximal inhibitory concentration (IC50) in assay [1] was 19 nM; in [2] it was 790 nM; in assay [3] it was 5700 nM; in [4] it was 2500 nM; in assay [5], 7100 nM; in assay [5] (IC50, median, median of biological replicates (n = 3), Fig. 6k, J:CXCR1 cells, chemokine at EC80) it was 14000 nM.
With “EEEDDYTAYAPLTCYF [HD7, hexadecapeptide from evasin EVA4_RHISA]”, the “number of chemokines bound with log2E > 5” value in assay [6] was “over 15”.
Consider “sHD2: HD2 generated as HIS:SUMO fusion protein in E.coli for BLI (EEDDYTAYAPLTCYFT; also: HIS:SUMO fusion protein, side not given here)”, for which the “specific binding in BLI cross-binding screen” value in assay [7] (1 μM chemokine, fusion 1 mg/mL immobilised, specific if Rmax exceeded 3 times Rmax of SUMO:HD2SCR, two independent experiments) is “specifically and reproducibly bind”; in assay [8] it was “specifically and reproducibly bind”; in assay [9] it was “specifically and reproducibly bind”; in assay [10] it was “specifically and reproducibly bind”; in assay [11], “specifically and reproducibly bind”; in assay [12], “specifically and reproducibly bind”. Further, the “specific binding in BLI cross-binding screen” value in assay [13] is “specifically and reproducibly bind”. The Kd in assay [7] (Expt ID E12, N = 5 dose responses with good fits, BLI kinetic assay, 1:1 binding model, 25 °C) is 142 nM.
